The text below walks through data of patent publication US8282968B2, “Bioactive water fraction from Gomphostemma niveum” (The Director General, Defence Research and Development …, priority 2005, dated 2012).

In general, IC90 refers to the point of the concentration-response curve where the effect stands at 90%. Higher therefore signals weaker potency.

The assay concerns P. falciparum. The assay is described as follows: In vitro evaluation of anti-malarial activity (schizont maturation inhibition). The format is cell-based. Particulars: Plasmodium falciparum, 24 h. An excerpt: All the tests are run in duplicates with in 96 well flat bottomed tissue culture plate and double dilutions are made for each of the test compound with individual control wells only with the RPMI 1640 and human serum supplement.

On to `CCN(CC)CCCC(C)Nc1ccnc2cc(Cl)ccc12` (stereo not shown) [Chloroquine], for which it took 46 nM to reach the 90% level (IC90).
